Columns and labels:
[1] = biological target: MLK2/MAP3K10 (Homo sapiens, UniProt Q02779); conditions: 1 μM; Run 1, Run 2
[2] = biological target: CDK9/cyclin T1 (Homo sapiens, UniProt P50750); experiment: biochemical; conditions: read-out: % enzyme activity, 1 μM; Run 1, Run 2
[3] = biological target: T1, P38g (Homo sapiens, UniProt P53778); conditions: 1 μM; Run 1, Run 2
T1 sequence (P53778 1-367): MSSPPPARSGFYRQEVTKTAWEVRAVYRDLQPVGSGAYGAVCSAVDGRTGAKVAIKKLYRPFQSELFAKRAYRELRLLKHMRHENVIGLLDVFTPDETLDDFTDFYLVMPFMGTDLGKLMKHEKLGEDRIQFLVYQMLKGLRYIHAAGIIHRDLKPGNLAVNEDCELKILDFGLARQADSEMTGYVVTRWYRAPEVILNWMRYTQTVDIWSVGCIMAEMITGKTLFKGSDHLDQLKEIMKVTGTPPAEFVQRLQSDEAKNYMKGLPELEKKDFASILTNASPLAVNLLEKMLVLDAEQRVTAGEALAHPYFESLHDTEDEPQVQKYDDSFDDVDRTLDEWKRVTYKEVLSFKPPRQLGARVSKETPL

[4] = biological target: ERN1/IRE1 (Homo sapiens, UniProt O75460); conditions: 1 μM; Run 1, Run 2
[5] = biological target: T2, IRR/INSRR (Homo sapiens, UniProt P14616); experiment: biochemical; conditions: read-out: % enzyme activity, 1 μM; Run 1, Run 2
T2 sequence (P14616 27-1297): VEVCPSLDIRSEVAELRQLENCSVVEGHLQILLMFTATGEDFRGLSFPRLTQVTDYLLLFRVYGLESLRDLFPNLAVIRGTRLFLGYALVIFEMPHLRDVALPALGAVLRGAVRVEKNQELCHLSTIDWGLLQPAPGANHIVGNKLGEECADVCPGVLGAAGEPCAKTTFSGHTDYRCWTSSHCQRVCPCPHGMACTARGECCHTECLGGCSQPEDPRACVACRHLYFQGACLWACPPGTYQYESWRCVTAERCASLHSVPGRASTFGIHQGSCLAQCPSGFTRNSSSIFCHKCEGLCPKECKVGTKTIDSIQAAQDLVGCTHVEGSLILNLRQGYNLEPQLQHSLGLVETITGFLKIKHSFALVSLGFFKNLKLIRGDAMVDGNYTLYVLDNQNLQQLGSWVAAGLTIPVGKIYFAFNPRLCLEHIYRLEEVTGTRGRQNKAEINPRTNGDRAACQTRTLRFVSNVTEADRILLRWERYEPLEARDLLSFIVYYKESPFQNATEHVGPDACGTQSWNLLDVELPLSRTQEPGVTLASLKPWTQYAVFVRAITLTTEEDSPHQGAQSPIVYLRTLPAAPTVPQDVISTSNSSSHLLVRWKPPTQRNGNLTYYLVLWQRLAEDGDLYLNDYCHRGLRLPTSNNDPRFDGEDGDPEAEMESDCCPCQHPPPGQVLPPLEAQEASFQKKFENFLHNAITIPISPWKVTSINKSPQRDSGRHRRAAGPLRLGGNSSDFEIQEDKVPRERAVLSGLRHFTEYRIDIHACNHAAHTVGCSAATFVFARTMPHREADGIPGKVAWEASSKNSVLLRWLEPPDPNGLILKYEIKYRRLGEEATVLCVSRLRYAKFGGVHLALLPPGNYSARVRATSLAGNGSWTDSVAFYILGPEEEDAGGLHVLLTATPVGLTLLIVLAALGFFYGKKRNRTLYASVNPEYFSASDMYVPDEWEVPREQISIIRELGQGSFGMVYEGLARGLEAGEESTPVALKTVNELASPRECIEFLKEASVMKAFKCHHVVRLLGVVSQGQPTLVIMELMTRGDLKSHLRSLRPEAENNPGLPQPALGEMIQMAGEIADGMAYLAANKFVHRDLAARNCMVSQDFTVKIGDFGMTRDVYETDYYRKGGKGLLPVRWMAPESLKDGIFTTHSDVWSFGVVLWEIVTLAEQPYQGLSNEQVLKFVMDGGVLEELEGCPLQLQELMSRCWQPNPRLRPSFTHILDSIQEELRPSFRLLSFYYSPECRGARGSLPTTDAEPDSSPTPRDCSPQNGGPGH

[6] = biological target: MYO3A (Homo sapiens, UniProt Q8NEV4); experiment: biochemical; conditions: read-out: % enzyme activity, 1 μM; Run 1, Run 2
MYO3A, sequence (Q8NEV4 whole entry): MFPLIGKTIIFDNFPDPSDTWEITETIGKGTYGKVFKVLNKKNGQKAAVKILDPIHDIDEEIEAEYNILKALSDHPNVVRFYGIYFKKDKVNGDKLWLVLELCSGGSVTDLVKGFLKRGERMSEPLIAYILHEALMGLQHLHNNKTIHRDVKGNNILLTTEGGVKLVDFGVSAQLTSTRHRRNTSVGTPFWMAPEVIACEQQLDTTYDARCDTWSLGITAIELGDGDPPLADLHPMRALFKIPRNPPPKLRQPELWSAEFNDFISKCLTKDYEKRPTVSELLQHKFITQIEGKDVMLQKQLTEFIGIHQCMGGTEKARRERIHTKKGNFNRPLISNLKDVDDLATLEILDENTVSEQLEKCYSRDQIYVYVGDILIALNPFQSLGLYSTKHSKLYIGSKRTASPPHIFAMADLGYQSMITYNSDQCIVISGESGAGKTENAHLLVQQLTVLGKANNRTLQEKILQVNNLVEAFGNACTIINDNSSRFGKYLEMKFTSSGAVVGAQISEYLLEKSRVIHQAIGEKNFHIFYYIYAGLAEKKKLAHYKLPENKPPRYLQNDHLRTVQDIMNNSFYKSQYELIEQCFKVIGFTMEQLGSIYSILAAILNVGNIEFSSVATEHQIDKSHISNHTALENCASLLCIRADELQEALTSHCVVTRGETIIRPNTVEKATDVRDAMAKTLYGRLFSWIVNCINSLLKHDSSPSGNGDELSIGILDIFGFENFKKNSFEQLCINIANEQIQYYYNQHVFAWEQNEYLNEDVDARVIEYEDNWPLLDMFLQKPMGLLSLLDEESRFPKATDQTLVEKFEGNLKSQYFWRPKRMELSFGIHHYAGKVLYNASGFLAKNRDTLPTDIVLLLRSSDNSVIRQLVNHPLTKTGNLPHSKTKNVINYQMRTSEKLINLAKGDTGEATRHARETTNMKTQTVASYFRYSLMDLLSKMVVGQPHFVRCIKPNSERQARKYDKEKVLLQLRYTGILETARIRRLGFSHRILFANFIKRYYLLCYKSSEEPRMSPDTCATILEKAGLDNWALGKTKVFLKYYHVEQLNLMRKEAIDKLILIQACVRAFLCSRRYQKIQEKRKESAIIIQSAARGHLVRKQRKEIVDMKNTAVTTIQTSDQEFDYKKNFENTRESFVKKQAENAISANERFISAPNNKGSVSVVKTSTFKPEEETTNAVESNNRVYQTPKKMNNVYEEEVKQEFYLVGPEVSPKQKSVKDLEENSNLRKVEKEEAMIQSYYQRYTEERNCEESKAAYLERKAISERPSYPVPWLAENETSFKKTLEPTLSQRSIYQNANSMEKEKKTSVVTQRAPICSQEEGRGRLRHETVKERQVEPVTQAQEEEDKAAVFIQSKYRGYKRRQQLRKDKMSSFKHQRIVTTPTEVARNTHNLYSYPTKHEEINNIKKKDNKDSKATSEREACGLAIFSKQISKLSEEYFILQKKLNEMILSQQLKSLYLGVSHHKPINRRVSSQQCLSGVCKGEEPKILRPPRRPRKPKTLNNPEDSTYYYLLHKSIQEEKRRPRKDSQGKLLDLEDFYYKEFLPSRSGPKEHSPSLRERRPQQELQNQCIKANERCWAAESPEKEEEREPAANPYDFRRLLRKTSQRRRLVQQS

[7] = biological target: T3, EPHB2 (Homo sapiens, UniProt P29323); experiment: biochemical; conditions: read-out: % enzyme activity, 1 μM; Run 1, Run 2
T3 sequence (P29323 19-1055): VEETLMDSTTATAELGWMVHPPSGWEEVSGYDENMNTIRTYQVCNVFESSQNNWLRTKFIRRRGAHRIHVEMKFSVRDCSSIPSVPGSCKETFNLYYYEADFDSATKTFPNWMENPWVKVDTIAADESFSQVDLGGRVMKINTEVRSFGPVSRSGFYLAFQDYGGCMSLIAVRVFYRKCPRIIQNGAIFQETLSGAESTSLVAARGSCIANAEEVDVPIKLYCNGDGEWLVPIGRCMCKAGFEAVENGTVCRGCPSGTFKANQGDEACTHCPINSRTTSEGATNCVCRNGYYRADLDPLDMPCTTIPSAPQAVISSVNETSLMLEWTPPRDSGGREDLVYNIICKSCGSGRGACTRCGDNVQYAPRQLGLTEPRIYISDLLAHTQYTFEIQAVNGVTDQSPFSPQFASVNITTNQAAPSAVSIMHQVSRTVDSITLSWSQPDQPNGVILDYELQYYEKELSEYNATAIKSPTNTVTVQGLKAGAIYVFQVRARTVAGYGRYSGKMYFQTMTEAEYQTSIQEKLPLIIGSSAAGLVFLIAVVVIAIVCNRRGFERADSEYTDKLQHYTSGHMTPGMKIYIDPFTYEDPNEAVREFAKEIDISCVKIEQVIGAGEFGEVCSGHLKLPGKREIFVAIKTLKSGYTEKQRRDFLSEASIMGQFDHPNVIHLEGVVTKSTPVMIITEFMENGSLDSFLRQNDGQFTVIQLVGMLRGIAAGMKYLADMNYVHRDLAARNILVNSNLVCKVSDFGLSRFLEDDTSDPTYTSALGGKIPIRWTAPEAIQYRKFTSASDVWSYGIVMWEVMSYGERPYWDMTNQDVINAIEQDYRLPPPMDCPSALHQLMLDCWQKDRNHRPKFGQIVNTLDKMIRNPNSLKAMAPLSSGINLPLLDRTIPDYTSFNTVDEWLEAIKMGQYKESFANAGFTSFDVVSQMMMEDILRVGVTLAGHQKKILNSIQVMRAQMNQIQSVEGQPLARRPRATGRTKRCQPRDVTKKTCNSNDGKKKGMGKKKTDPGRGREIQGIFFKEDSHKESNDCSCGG

[8] = biological target: PEAK1 (Homo sapiens, UniProt Q9H792); experiment: biochemical; conditions: read-out: % enzyme activity, 1 μM; Run 1, Run 2
[9] = biological target: PDGFRb (Homo sapiens, UniProt P09619); experiment: biochemical; conditions: read-out: % enzyme activity, 1 μM; Run 1, Run 2
[10] = biological target: FGR (Homo sapiens, UniProt P09769); conditions: 1 μM; Run 1, Run 2
FGR, sequence (P09769 whole entry): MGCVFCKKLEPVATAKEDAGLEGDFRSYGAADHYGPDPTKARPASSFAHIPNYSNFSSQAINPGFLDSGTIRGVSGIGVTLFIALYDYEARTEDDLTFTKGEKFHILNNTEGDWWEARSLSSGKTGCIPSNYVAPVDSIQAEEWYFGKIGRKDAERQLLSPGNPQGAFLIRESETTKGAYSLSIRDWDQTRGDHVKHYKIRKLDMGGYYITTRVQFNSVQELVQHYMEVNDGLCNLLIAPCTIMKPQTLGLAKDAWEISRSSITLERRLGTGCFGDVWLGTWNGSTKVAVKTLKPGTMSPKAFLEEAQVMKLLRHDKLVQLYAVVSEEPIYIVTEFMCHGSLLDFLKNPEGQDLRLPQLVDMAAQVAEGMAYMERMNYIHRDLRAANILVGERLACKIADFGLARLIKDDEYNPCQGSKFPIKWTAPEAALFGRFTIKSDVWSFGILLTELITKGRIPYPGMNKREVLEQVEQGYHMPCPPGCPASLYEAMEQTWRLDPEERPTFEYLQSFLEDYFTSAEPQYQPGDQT

[11] = biological target: GRK6 (Homo sapiens, UniProt P43250); conditions: 1 μM; Run 1, Run 2
[12] = biological target: PASK (Homo sapiens, UniProt Q96RG2); conditions: 1 μM; Run 1, Run 2
PASK, sequence (Q96RG2 whole entry): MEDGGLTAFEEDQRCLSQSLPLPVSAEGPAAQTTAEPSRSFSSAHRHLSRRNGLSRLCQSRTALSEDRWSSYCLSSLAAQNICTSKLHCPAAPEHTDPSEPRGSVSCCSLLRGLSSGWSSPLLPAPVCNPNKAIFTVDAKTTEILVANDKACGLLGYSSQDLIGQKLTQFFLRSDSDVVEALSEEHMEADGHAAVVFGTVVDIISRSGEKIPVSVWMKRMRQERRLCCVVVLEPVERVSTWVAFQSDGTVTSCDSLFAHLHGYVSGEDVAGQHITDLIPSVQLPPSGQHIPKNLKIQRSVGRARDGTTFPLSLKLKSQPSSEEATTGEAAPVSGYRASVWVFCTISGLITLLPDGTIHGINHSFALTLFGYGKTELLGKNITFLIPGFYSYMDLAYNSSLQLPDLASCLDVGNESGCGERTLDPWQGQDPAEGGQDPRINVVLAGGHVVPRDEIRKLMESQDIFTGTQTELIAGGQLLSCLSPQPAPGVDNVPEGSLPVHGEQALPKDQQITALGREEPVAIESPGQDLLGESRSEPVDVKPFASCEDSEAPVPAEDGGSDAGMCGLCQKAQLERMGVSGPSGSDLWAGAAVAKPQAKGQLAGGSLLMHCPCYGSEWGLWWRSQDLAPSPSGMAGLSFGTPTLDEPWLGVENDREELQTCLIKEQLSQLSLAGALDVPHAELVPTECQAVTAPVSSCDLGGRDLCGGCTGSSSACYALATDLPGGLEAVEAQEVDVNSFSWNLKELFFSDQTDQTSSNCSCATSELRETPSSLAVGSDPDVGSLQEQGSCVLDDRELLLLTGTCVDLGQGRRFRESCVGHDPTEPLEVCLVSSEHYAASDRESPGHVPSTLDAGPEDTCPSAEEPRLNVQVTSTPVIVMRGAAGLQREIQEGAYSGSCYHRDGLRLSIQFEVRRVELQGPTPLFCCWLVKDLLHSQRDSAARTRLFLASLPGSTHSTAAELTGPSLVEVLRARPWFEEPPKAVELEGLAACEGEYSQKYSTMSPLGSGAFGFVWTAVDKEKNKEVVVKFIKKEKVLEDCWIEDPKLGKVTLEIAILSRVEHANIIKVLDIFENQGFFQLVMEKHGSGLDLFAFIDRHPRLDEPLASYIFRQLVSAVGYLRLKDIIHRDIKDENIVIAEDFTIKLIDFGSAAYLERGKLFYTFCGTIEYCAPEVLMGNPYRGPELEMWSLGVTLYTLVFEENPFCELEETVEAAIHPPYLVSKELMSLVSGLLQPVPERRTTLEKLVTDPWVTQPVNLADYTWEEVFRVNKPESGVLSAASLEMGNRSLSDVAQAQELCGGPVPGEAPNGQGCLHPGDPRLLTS

[13] = biological target: T2, IRR/INSRR; conditions: 1 μM; Run 1, Run 2
[14] = biological target: T4, Haspin (Homo sapiens, UniProt Q8TF76); conditions: 1 μM; Run 1, Run 2
T4 sequence (Q8TF76 1-798): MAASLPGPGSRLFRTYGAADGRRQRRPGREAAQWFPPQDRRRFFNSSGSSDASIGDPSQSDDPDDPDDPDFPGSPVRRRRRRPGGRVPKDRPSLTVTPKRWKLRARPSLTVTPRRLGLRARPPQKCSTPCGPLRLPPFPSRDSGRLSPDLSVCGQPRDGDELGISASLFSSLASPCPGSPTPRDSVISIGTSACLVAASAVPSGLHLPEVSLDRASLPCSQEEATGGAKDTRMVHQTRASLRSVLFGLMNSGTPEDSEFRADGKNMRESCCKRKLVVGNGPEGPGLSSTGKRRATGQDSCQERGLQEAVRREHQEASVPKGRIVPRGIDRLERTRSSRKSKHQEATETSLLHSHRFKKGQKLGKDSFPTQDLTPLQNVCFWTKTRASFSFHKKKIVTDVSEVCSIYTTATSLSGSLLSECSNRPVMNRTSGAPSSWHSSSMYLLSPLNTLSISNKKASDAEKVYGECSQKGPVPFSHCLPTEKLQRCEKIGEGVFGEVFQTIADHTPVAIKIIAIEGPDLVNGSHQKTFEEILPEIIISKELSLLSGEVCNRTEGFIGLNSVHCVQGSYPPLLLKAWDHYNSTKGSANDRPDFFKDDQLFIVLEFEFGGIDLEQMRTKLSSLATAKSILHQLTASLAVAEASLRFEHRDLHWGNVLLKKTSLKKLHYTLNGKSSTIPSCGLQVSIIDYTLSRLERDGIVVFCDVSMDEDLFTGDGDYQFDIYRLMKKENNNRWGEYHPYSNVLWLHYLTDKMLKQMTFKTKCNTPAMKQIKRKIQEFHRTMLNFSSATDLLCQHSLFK

| SMILES | % enzyme activity [1] [%] | remaining activity at 1 µM [2] [%] | % enzyme activity [3] [%] | % enzyme activity [4] [%] | remaining activity at 1 µM [5] [%] | remaining activity at 1 µM [6] [%] | remaining activity at 1 µM [7] [%] | remaining activity at 1 µM [8] [%] | remaining activity at 1 µM [9] [%] | % enzyme activity [10] [%] | % enzyme activity [11] [%] | % enzyme activity [12] [%] | % enzyme activity [13] [%] | % enzyme activity [14] [%] |
| --- | --- | --- | --- | --- | --- | --- | --- | --- | --- | --- | --- | --- | --- | --- |
| COc1cc(-c2cncc(-c3ccc(N4CCN(C)CC4)cc3)c2C)cc(F)c1C(N)=O [Compound 26a, 2-Fluoro-6-methoxy-4-(4-methyl-5-(4-(4-methylpiperazin-1-yl)phenyl)pyridin-3-yl)benzamide] | 86.29 | 90.8 | 107.36 | 92.47 | 108 | 84 | 93.9 | 99.1 | 77.3 | 74.69 | 107.43 | 93.23 | 99.85 | 82.77 |
| COc1cc(-c2cncc(-c3ccc(N4C[C@@H](C)N(C)[C@@H](C)C4)cc3)c2C)cc(F)c1C(N)=O [Compound 26c, 2-Fluoro-6-methoxy-4-(4-methyl-5-(4-((3R,5S)-3,4,5-trimethylpiperazin-1-yl)phenyl)pyridin-3-yl)benzamide] | 96.07 | 97.1 | 105.83 | 90.44 | 121 | 94.7 | 98.8 | 96.6 | 92.1 | 86.35 | 94.12 | 98.21 | 113.76 | 82.31 |
